From ChEMBL document CHEMBL4823324, “Discovery of BMS-986318, a Potent Nonbile Acid FXR Agonist for the Treatment of Nonalcoholic Steatohepatitis” (ACS Med Chem Lett, 2021)

Key:
[1] = target: Cytochrome P450 3A4 (Homo sapiens, UniProt P08684); test: Inhibition of CYP3A4 (unknown origin) expressed in baculovirus infected insect supersomes preincubated for 15 mins followed by addition of NADPH regenerating system by fluorescence based analysis; type: ADME
[2] = target: T1, Oxysterols receptor LXR-beta (Homo sapiens, UniProt P55055); test: Activation of human LXRbeta co-expressed with TK-luciferase reporter in African green monkey CV-1 cells incubated for overnight by Steady-Glo luciferase reporter gene based luminescence analysis; type: cell-based
T1 sequence (P55055 whole entry): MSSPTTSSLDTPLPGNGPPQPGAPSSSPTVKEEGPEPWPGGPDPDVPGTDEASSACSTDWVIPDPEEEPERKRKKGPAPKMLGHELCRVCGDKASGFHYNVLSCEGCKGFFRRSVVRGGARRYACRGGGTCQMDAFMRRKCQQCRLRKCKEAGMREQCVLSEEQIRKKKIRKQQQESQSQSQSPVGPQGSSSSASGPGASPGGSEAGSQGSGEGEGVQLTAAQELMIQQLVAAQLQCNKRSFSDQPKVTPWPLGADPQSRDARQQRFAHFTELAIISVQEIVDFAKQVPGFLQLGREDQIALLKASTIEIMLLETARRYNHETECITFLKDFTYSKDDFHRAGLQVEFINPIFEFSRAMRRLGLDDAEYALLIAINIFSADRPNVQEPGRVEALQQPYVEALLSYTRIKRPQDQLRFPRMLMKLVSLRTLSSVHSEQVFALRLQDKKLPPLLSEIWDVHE

[3] = target: T2, Estrogen receptor (Homo sapiens, UniProt P03372); test: Activation of estrogen receptor alpha (unknown origin) by fluorescence polarization based competition assay
T2 sequence (P03372 whole entry): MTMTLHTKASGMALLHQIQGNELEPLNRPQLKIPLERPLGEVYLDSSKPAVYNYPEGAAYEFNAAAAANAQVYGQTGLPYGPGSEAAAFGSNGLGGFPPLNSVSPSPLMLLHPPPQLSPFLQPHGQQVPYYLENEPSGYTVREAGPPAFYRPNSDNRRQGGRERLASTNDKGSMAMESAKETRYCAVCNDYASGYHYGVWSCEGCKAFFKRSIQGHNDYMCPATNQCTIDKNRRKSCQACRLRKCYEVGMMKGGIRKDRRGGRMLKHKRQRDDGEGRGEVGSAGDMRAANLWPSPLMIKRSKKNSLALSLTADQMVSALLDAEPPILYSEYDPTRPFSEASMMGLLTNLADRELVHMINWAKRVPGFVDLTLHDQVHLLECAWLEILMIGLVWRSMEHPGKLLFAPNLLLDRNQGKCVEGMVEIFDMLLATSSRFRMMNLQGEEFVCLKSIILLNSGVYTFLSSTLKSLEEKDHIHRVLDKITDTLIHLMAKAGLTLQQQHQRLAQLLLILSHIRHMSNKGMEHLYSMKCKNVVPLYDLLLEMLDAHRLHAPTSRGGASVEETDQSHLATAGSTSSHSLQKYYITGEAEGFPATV

[4] = target: T3, Glucocorticoid receptor (Homo sapiens, UniProt P04150); test: Activation of glucocorticoid receptor (unknown origin) by fluorescence polarization based competition assay
T3 sequence (P04150 whole entry): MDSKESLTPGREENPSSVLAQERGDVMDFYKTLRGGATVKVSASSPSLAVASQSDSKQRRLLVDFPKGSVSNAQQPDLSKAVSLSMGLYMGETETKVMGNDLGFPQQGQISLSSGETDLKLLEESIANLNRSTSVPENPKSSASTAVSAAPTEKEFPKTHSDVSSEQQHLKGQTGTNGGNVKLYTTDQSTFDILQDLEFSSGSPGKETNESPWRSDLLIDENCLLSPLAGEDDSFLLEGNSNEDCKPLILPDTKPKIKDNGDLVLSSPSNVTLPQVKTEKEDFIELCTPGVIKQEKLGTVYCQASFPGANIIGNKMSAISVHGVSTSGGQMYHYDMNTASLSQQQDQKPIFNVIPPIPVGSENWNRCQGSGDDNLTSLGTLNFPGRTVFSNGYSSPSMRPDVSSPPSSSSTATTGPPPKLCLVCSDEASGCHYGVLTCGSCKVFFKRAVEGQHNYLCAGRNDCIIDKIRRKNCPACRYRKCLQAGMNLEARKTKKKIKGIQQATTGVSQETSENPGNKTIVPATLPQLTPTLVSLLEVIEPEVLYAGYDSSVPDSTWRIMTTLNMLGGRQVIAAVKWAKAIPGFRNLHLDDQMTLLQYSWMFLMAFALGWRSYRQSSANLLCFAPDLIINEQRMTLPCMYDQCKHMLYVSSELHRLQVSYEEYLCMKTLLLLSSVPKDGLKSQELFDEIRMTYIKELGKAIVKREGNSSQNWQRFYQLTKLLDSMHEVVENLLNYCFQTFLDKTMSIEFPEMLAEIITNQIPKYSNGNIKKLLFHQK

[5] = Cmax in C57B6 mouse at 1 mg/kg, iv; type: ADME, organism-based; design: route intravenous, dose 1 mg/kg; conditions: in vivo
[6] = AUC in C57B6 mouse at 1 mg/kg, iv; type: ADME, organism-based; design: dose 1 mg/kg; conditions: in vivo
[7] = AUC in C57B6 mouse at 2 mg/kg, po administered as solution; type: ADME, organism-based; design: dose 2 mg/kg; conditions: in vivo
[8] = Half life in C57B6 mouse at 2 mg/kg, po administered as solution; type: ADME, organism-based; conditions: in vivo
[9] = Volume of distribution at steady state in C57B6 mouse at 1 mg/kg, iv; type: ADME, organism-based; conditions: in vivo, read-out: Vdss
[10] = target: T4, Nuclear receptor ROR-alpha (Homo sapiens, UniProt P35398); test: Agonist activity at human RORalpha (272 to 557 residues) co-expressed with Gal4-luciferase reporter in human Jurkat cells incubated for 18 hrs by Steady-Glo luciferase reporter based luminescence analysis; type: cell-based
T4 sequence (P35398 whole entry): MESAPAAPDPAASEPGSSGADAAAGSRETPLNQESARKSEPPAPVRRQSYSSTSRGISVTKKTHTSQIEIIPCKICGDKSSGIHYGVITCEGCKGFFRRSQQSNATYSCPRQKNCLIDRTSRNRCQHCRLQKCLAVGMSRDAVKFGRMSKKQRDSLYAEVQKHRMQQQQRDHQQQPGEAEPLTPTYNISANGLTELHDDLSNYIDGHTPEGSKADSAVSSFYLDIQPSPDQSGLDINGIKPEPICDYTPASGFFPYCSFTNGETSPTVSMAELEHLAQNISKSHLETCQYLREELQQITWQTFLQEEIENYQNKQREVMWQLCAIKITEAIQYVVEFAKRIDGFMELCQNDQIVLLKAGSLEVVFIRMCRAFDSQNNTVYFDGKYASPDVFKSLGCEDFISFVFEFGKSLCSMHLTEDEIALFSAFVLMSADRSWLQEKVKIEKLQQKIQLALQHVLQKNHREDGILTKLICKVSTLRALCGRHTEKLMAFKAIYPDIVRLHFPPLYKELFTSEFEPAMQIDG

Sequence of Cytochrome P450 3A4 (P08684 whole entry): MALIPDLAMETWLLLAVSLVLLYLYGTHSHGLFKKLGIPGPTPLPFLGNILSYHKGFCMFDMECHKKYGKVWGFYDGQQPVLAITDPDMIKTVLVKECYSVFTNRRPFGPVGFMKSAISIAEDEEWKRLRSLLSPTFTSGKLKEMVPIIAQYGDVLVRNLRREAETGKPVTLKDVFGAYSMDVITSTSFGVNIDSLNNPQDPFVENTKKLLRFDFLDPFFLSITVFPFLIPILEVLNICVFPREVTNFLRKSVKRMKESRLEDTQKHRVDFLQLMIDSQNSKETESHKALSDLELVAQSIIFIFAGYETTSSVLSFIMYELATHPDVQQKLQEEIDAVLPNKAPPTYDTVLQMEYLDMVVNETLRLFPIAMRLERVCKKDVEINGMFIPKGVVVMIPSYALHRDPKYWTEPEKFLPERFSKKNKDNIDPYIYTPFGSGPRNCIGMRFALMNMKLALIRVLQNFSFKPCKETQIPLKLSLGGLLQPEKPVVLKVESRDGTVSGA

In the case of `O=C(O)c1cc(C(F)(F)F)c2cc(N3CCC4(C=C(c5c(-c6c(Cl)cncc6Cl)noc5C5CC5)C4)CC3)ccc2n1`, the IC50 [1] is reported as > 40 µM, the EC50 [2] is reported as > 40 µM and the EC50 [3] is reported as > 40 µM. The EC50 [4] was > 40 µM, the Cmax [5] was 1490 nM and the AUC [6] was 9.32 µM·h. It also gave an AUC [7] of 6.65 µM·h, a half-life [8] of 2.3 h and a Vd [9] of 0.56 L/kg. For the same molecule, the EC50 [10] was > 40 µM.
